Values after ≈ are worked out from the molar mass of the structure shown. Like-named read-outs stand apart in the source and are kept apart here. Residues, ends and D or L forms follow the SMILES beside them.
Legend:
E. coli [1] = test: Live/Dead staining (SYTO 9 / PI) of membrane integrity, confocal microscopy; type: cell-based, Escherichia coli; conditions: 10 min
Experimental: Microbial cell membrane integrity or damage was assayed with Live/Dead staining. E. coli were grown as for the antimicrobial activity assay and washed with PPB. […] Untreated cells served as negative control. Cells were subsequently stained with 5 μM SYTO 9 and 5 μM propidium iodide (PI). After a 10-minute incubation in the dark, 5 µl of each cell suspension was placed on a microscope slide, covered with thin 2 % (w/v) agar slices, and examined using an Olympus Fluoview FV1000 confocal laser microscope at × 60 magnification. For SYTO 9, excitation was at 488 nm and emission was collected between 500 and 530 nm; for PI, excitation was at 543 nm with emission detected between 555 and 655 nm. Sequential scanning was used to avoid crosstalk of the fluorescent dyes.
Next, we investigated whether the application of NCR169C17–38 peptide affects membrane permeability of E. coli, and if so, to what extent and how rapidly these changes occur.

E. coli [2] = test: Real-time PI uptake; type: cell-based, Escherichia coli
Experimental: To monitor PI uptake in real time, 10 µl of E. coli suspension (OD₆₀₀ = 0.1, prepared as described above) was mixed with 90 µl of PPB containing a two-fold serial dilution of NCR169C17–38 (12.5 µM to 0.8 µM) or polymyxin B (0.8 µM), along with 200 ng/ml PI. Fluorescence was recorded using a Hidex Sense Microplate Reader (software version 5064) with excitation and emission wavelengths set at 535 nm and 617 nm, respectively. Experiments were repeated three times.
To get a more precise assessment of how rapidly NCR169C17–38 induces membrane damage, we monitored PI uptake in real time. E. coli was treated in a microtiter plate with two-fold dilutions of NCR169C17–38 (12.5 - 0.8 µM) and PI fluorescence was measured using a plate reader (Fig. 2.C). For comparison, polymyxin B, a well-known membrane-permeabilizing/damaging antibiotic, was included as a control. A rapid rise in fluorescence within 1–2 min was observed upon exposure to NCR169C17–38 at MBC or higher concentrations, indicating swift membrane permeabilization.

S. aureus = type: cell-based, Staphylococcus aureus; conditions: 8 h
Experimental: For serum stability test human blood was purchased from the Regional Blood Centre in Szeged (the use of human blood has been authorized by the Regional Hungarian Ethics Committee and approved by the Ethics Review Sector of DG RTD (European Commission) in connection with EK’s ERC AdG SymBiotics). The cells from 10 ml of EDTA-blood were centrifuged at 1500 × g for 1 min and washed several times in TBS buffer (10 mM Tris, pH: 7.2, 150 mM NaCl) until the supernatant, representing the serum, became colorless. The NCR169C17–38 peptide was added to the serum at 1:1 ratio and incubated at room temperature for 8 h. Subsequently, serial 2-fold dilutions of the peptide were prepared in PPB, with concentrations ranging from 100 to 0.2 µM and antimicrobial assay was done to determine the MBC values. Experiments were done in three biological replicates.

[3] = test system: HindIII-digested lambda phage DNA; test: Real-time DNA binding by SYBR Gold fluorescence; conditions: 100 ng DNA, 10 µM peptide added at 0 or 14 min, room temperature
Experimental: In addition, DNA-binding kinetics were monitored in real time using a Hidex Sense plate reader at room temperature in three independent experiments. Reaction mixtures contained 100 ng of HindIII-digested lambda phage DNA in 1 × SYBR Gold (Thermo Scientific), either without peptide or with 10 µM of NCR169C17–38 (2.74041 µg), NCR169 (4.56545 µg), NCR169_16–27 (1.56597 µg), or NCR169_17–27 (1.40279 µg). Peptides were added either at the start (0 min) or at 14 min. Fluorescence from DNA-bound SYBR Gold was measured every 3 min (excitation 490 nm, emission 535 nm). At 27 min, proteinase K (1 mg/ml; 100 µg final) was added to peptide-treated samples to assess the effect on peptide–DNA binding. Experiments were done in three biological replicates.
The DNA-binding kinetics were quantified using SYBR Gold fluorescence (Fig. 3.D). […] To test if peptide removal would recover the DNA–SYBR Gold fluorescence to control values, Proteinase K was added at 27 min to all reactions. […] In contrast, fluorescence values in the NCR169 samples remained unchanged, while those of NCR169C17–38 or NCR169_17–27 increased slightly and gradually to the same limited extent.

[4] = test system: Acinetobacter baumannii pre-formed biofilm; test: microbe, parasite or virus in culture; type: cell-based; conditions: for MBC: 24 h
Experimental: For the biofilm eradication assay the difference was at the beginning of the experiments when bacteria were pre-cultured for 24 h or 72 h in MHB with a starting OD600 = 0.01. Then bacterial suspensions were removed from the wells followed by washing three times with 200 µl of 1/2 MHB. Subsequently fresh 1/10 MHB was added to the wells containing the respective dilutions of NCR169C17–38, meropenem or polymixin B and the treatment lasted either 3 h or 24 h. Experiments were done in three biological replicates.
To assess whether the NCR169C17–38 peptide or the tested antibiotics could eradicate pre-formed biofilms, A. baumannii was first cultured in MHB for 24 h, then treated with NCR169C17–38, meropenem or polymyxin B for either 3 h or 24 h, using the same concentration range as in the previous experiment. Both bacterial survival within the pre-formed biofilm and the amount of residual biofilm were assessed. […] In contrast, neither of the two antibiotics completely eliminated the bacteria within the tested concentration range. […] This 24 h of treatment was repeated on mature biofilm (pre-formed for 72 h) and the results were very similar (Supplementary Fig. 1.).

Candida species = conditions: ref Szerencsés et al., 2021; cited from earlier work
Description: (§1) NCR169 is another NCR peptide essential for differentiation of nitrogen fixing bacteroids in Medicago species ([Horváth et al., 2015]). This 38-amino-acid peptide contains four cysteines that are critical for its symbiotic function in planta.

Cryptococcus neoformans = conditions: ref Szerencsés et al., 2025; cited from earlier work
Description: as §1

SMILES: CC[C@H](C)[C@H](NC(=O)[C@H](CCCCN)NC(=O)[C@H](Cc1ccccc1)NC(=O)[C@H](CC(C)C)NC(=O)[C@@H]1CCCN1C(=O)[C@H](CCCCN)NC(=O)[C@H](CCCCN)NC(=O)[C@H](CO)NC(=O)[C@@H](N)CCCCN)C(=O)N[C@@H](Cc1c[nH]c2ccccc12)C(=O)N[C@@H](CCCCN)C(=O)N[C@@H](CS)C(=O)N[C@H](C(=O)N[C@@H](CCC(=O)O)C(=O)N[C@@H](CC(N)=O)C(=O)N[C@H](C(=O)N[C@@H](CS)C(=O)N[C@H](C(=O)N[C@@H](CC(C)C)C(=O)N[C@@H](Cc1c[nH]c2ccccc12)C(=O)N[C@@H](Cc1ccc(O)cc1)C(=O)N[C@@H](CCCCN)C(N)=O)C(C)C)C(C)C)C(C)C [NCR169C17–38] (H-KSKKPLFKIWKCVENVCVLWYK-NH2; N-terminus assumed)
- membrane integrity, SYTO 9 / PI staining (E. coli [1]; 0.8 µM peptide): predominantly red-stained cells
- membrane integrity, SYTO 9 / PI staining (E. coli [1]; 1.6 µM peptide): all cells appeared red
- time to rapid rise in PI fluorescence (E. coli [2]; E. coli in PPB, peptide at MBC or higher concentrations (12.5-0.8 µM tested), 200 ng/ml PI): 1 to 2 min
- PI uptake kinetics compared at respective MBC values (E. coli [2]; E. coli, polymyxin B 0.8 µM as control): more rapidly and effectively than polymyxin B
- MBC after pre-incubation in human serum (S. aureus): 3.1 µM (≈ 8.49 µg/mL)
- extent of SYBR Gold fluorescence signal reduction (hierarchy) [3]: NCR169C17–38 > NCR169 > NCR169_16–27 > NCR169_17–27
- degradation of pre-formed biofilm ([4]; A. baumannii biofilm pre-formed 24 h, 24 h of treatment, Crystal Violet OD550): successful even at sub-MBC level
- MBC ([4]; pre-formed biofilm, read-out: MBC, Eradication test after 3 h): 6.3 µM (≈ 17.3 µg/mL)
- MBC ([4]; pre-formed biofilm, read-out: MBC, Eradication test after 24 h): 12.5 µM (≈ 34.2 µg/mL)
- concentration degrading the mature biofilm (sub-MBC level) ([4]; pre-formed biofilm, 72 h): 3.1 µM
- antifungal activity (Candida species): potent antifungal activity
- antifungal activity (Cryptococcus neoformans): potent antifungal activity

— PMC12811501, “A plant-derived antimicrobial peptide with multiple mechanisms of action exhibiting antibacterial and antibiofilm activities comparable to or superior to polymyxin B” (Current Research in Microbial Sciences, 2025)
